From publication PMC5504357, “Antifungal Potential of Copper(II), Manganese(II) and Silver(I) 1,10-Phenanthroline Chelates Against Multidrug-Resistant Fungal Species Forming the Candida haemulonii Complex: Impact on the Planktonic and Biofilm Lifestyles” (Frontiers in Microbiology, 2017) come the findings set out here.

Data set [1] deals with Candida haemulonii var. vulnera. As to the kind of experiment: Biofilm-growing cells, XTT assay, bMIC. It is filed as cell-based. To be noted: for GM-bMIC: geometric mean, C. haemulonii var. vulnera isolates; for bMIC: mature biofilm, 48 h, 50% inhibition of metabolic activity. A digest of the protocol: (§1)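 Yeasts (10^6 cells) form biofilms over 48 h at 37°C in Sabouraud-dextrose broth. Non-adherent cells are washed off with PBS, compounds are added at the planktonic-assay concentrations for a further 48 h, and XTT reduction gives metabolic activity, with 50% inhibition defining bMIC.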
(Tetrazolium dyes change colour on reduction, which living cells bring about.)

Data set [2] concerns Candida duobushaemulonii. As to the kind of experiment: Biofilm-growing cells, XTT assay, bMIC. Format: cell-based. The conditions noted are these: for GM-bMIC: geometric mean, C. duobushaemulonii isolates; for bMIC: mature biofilm, 48 h, 50% inhibition of metabolic activity. A digest of the protocol: as §1
Data set [3] can be described thus: Solubility in solvents. To be noted: solvents as named. It is filed as physicochemical. The procedure:
{[Cu(3,6,9-tdda)(phen)2].3H2O.EtOH}n (7). Step (i): Copper(II) acetate hydrate (1.50 g; 7.51 mmol) was dissolved in ethanol (50 mL) and the solution was added to an ethanolic solution (25 mL) of 3,6,9-trioxaundecanedioic acid (3,6,9-tddaH2) (2.84 g; […]). The light-green suspension was refluxed for 1 h, and after cooling to room temperature the light-green solid, [Cu(3,6,9-tdda)].H2O, was filtered off, washed with cold ethanol and air dried. Yield: 1.88 g (82.97%). % Calculated: C: 31.84, H: 4.68. % Found: C: 32.20, H: 4.60. […] Step (ii): [Cu(3,6,9-tdda)].H2O (1.00 g; 3.31 mmol) and phen (2.39 g; 13.26 mmol) were dissolved together in ethanol (50 mL) and the resulting dark-green mixture was refluxed for 2 h. The suspension was cooled and the green solid, {[Cu(3,6,9-tdda)(phen)2]3H2O.EtOH}n(7), was filtered off, washed with cold ethanol and air dried. Yield: 1.63 g (66.09%). % Calculated: C: 54.87, H: 5.42, N: 7.53. % Found: C: 54.65, H: 5.63, N: 7.39.
[Ag2(3,6,9-tdda)(phen)4].EtOH (16). Step (i): Silver(I) acetate (3.00 g; 17.97 mmol) was dissolved in ethanol (30 mL) and the solution was added to an ethanolic solution (25 mL) of 3,6,9-trioxaundecanedioic acid (3,6,9-tddaH2) (2.84 g; 8.95 mmol) and the orange-brown suspension refluxed for 3 h. […] Green [Ag2(3,6,9-tdda)(phen)4].EtOH (16) precipitated and was filtered off, washed with cold ethanol and air dried. Yield: 0.83 g (65.10%). % Calculated: C: 57.92, H: 4.19, N: 9.32. % Found: C: 57.75, H: […], N: 9.02. IR (KBr) νmax: 3380, 3046, 2905, 1978, 1804, 1618, 1585, 1509, 1421, 1322, 1263, 1215, 1121, 1077, 1018, 932, 890, 838, 726, 621, 465, 413 cm^−1. ^1H NMR (500 MHz, DMSO-d6, 313 K, TMS) δ = 9.12(8H, s), 8.63 (8H, d), 8.08 (8H, s), 7.91 (8H, dd), 3.74 (4H, s), 3.57 (8H, dd). ^13C NMR (125 MHz, DMSO-d6, 313 K, TMS) δ = 173.41, 151.28, 143.57, 138.03, 129.24, 127.37, 124.74, 71.44, 70.42, 69.74.

The test system of data set [4] is Candida haemulonii var. vulnera. As to the kind of experiment: Planktonic growth, broth microdilution (CLSI M27-A3), MIC. The conditions noted are these: for GM-MIC: geometric mean of three C. haemulonii var. vulnera isolates; for MIC: planktonic, 48 h, 37°C. Format: cell-based. A digest of the protocol: (§2)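 Three clinical isolates per species (nail, blood, urine origin), grown in Sabouraud-dextrose 48 h at 37°C, were tested by CLSI M27-A3 broth microdilution in RPMI 1640 over 0.0625-32 mg/L. After 48 h at 37°C, MIC was the lowest concentration with no visible growth; the across-isolate value is a geometric mean MIC.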
Background: Broth dilution looks for growth in wells or tubes with falling amounts of substance.

Data set [5] has as its system Candida haemulonii. The data set is described as above. It is filed as cell-based. To be noted: for GM-MIC: geometric mean of three C. haemulonii isolates; for MIC: planktonic, 48 h, 37°C. The procedure, abridged: as §2
Data set [6] relates to Candida duobushaemulonii. Described as above. It is filed as cell-based. To be noted: for GM-MIC: geometric mean of three C. duobushaemulonii isolates; for MIC: planktonic, 48 h, 37°C. A digest of the protocol: as §2

In general, MIC refers to the least concentration at which growth counts as inhibited. Regarding `CCO.O=C([O-])COCCOCCOCC(=O)[O-].[Ag+].[Ag+].c1cnc2c(c1)ccc1cccnc12.c1cnc2c(c1)ccc1cccnc12.c1cnc2c(c1)ccc1cccnc12.c1cnc2c(c1)ccc1cccnc12` [compound 16, [Ag2(3,6,9-tdda)(phen)4].EtOH], the GM-bMIC in data set [1] came out at 2.52 mg/L; in data set [2], 6.35 mg/L. In addition, the bMIC in data set [1] (isolate LIP Ch5) came out at 4 mg/L; in data set [1] (isolate LIP Ch9) it was 1 mg/L; in data set [1] (isolate LIP Ch13), 4 mg/L; in data set [2] (isolate LIP Ch1) it was 4 mg/L; in data set [2] (isolate LIP Ch6), 8 mg/L; in data set [2] (isolate LIP Ch8), 8 mg/L. Also, the Solubility result in data set [3] was “soluble in H2O, MeOH, EtOH and insoluble in ethyl acetate and acetone”. Moreover, the GM-MIC in data set [4] worked out at 0.79 µg/mL; in data set [5], 1 µg/mL; in data set [6] it was 1.26 µg/mL. Besides, the minimal inhibitory concentration (MIC) in data set [4] (isolate LIP Ch5) is 1 µg/mL; in data set [4] (isolate LIP Ch9), 0.5 µg/mL; in data set [4] (isolate LIP Ch11) it was 1 µg/mL; in data set [5] (isolate LIP Ch4), 1 µg/mL; in data set [5] (isolate LIP Ch7), 1 µg/mL; in data set [5] (isolate LIP Ch12) it was 1 µg/mL. For the same compound, the MIC in data set [6] (isolate LIP Ch1) stood at 2 µg/mL; in data set [6] (isolate LIP Ch6), 1 µg/mL; in data set [6] (isolate LIP Ch8), 1 µg/mL.

With “{[Cu(3,6,9-tdda)(phen)2].3H2O.EtOH}n [compound 7]”, the results for the GM-bMIC in data set [1] and in data set [2] were 3.17 mg/L and 8 mg/L, respectively. Also, the bMIC was 4 mg/L in data set [1] (isolate LIP Ch5); 4 mg/L in data set [1] (isolate LIP Ch9); 2 mg/L in data set [1] (isolate LIP Ch13); 16 mg/L in data set [2] (isolate LIP Ch1); 4 mg/L in data set [2] (isolate LIP Ch6); 8 mg/L in data set [2] (isolate LIP Ch8). Further, in data set [3], the Solubility result is “soluble in H2O, MeOH, EtOH and insoluble in ethyl acetate and acetone”. Also, the GM-MIC in data set [4] was determined as 2.52 µg/mL; in data set [5], 3.17 µg/mL; in data set [6], 2 µg/mL. The MIC in data set [4] (isolate LIP Ch5) amounted to 2 µg/mL; in data set [4] (isolate LIP Ch9), 2 µg/mL; in data set [4] (isolate LIP Ch11), 4 µg/mL; in data set [5] (isolate LIP Ch4), 4 µg/mL; in data set [5] (isolate LIP Ch7), 4 µg/mL; in data set [5] (isolate LIP Ch12), 2 µg/mL. In addition, the MIC in data set [6] (isolate LIP Ch1), in data set [6] (isolate LIP Ch6) and in data set [6] (isolate LIP Ch8) was 2 µg/mL throughout.
